Source: ChEMBL document CHEMBL1157539, “Thousands of chemical starting points for antimalarial lead identification” (Nature, 2010)

Test system: Plasmodium falciparum
Experiment: GSK_TCMDC: Inhibition of Plasmodium falciparum 3D7 in whole erythrocytes, using parasite LDH activity as an index of growth.
Type: functional, organism-based
Conditions: Plasmodium falciparum, 3D7

Question: How did the XC50 turn out when CCN(CC)CCN(Cc1ccc(-c2ccc(C(F)(F)F)cc2)cc1)C(=O)Cn1cc(CCCc2cccc(F)c2F)c(=O)c2ccccc21 was run?
Answer: 1060 nM

Question: With C#CCN1CCC2=C(C1)c1c(O)cc(C(C)CCCc3ccc(F)cc3)cc1OC2(C)C (stereo not drawn) as the compound, how does the XC50 read?
Answer: 731 nM

Question: For O=C1COC2(CN1CC1CCN(Cc3ccc(O)c(Cl)c3)C1)c1ccccc1-c1ccccc12 (stereo not drawn), which XC50 is on record?
Answer: 1060 nM

Question: c1cncc(CCNCc2ccc(-c3ccc(CNC4Cc5ccccc5C4)cc3)cc2)c1 was tested. Which XC50 did it give?
Answer: 1090 nM

Question: Cc1noc(C)c1S(=O)(=O)N(C)Cc1ccc(-c2ccc(Cl)cc2)o1 was tested. Which XC50 did it give?
Answer: 362 nM

Question: How did the XC50 turn out when O=C(NC1CCC(CN2CCC(c3c[nH]c4ccccc34)CC2)CC1)c1cc2cccc([N+](=O)[O-])c2[nH]1 (stereo not drawn) was run?
Answer: 341 nM

Question: With CCCCc1ccccc1NS(=O)(=O)c1ccc(OC)c(N2CCNCC2)c1 as the compound, how does the XC50 read?
Answer: 1380 nM

Question: For Cc1cc2c(cc1C(F)(F)F)N(C(=O)Nc1ccc(C(=O)NCCN3CCCC3)cc1)CC2, which XC50 is on record?
Answer: 321 nM

Question: COc1cccc(OC)c1OCCCON1C(=N)N=C(N)NC1(C)C was tested. Which XC50 did it give?
Answer: 7.28 nM

Question: With CC(=O)Nc1ccccc1OCc1cc2cc(C(=O)N3CCC(N4C(=O)OCc5ccccc54)CC3)ccc2o1 as the compound, how does the XC50 read?
Answer: 236 nM

Question: For COc1ccc(CON2C(=N)N=C(N)NC2(C)C)cc1OC, which XC50 is on record?
Answer: 6.06 nM

Question: C(=NN=c1cc(-c2ccccc2)[nH]c2ccccc12)c1cccnc1 was tested. Which XC50 did it give?
Answer: 1230 nM

Question: CCCCC(=O)N(CCOC)Cc1ccc(-c2ccc(CNCCC)cn2)cc1 was tested. Which XC50 did it give?
Answer: 730 nM

Question: How did the XC50 turn out when Nc1cccc(CNCc2cccc(-c3ccc(-c4nc5ccccc5[nH]4)cc3)c2)c1 was run?
Answer: 415 nM

Question: How did the XC50 turn out when COc1ccc(C(=O)C2CC2CN2CC=C(c3c[nH]c4ccc(OC)nc34)CC2)cc1 (stereo not drawn) was run?
Answer: 479 nM

Question: Which XC50 does the source give for O=C(NC1CC1)c1ccc(N2CCC(Oc3ccc(F)cc3)CC2)nc1 here?
Answer: 1090 nM

Question: O=C(Nc1cccc(C(F)(F)F)c1)c1cccc(S(=O)(=O)NCC2CCCN(Cc3ccccc3)C2)c1 (stereo not drawn) was tested. Which XC50 did it give?
Answer: 1100 nM

Question: With O=C(Nc1cccc(-c2nn3ccccc3c2-c2ccnc(Nc3cccc(F)c3)n2)c1)c1c(F)ccc(F)c1F as the compound, how does the XC50 read?
Answer: 856 nM

Question: How did the XC50 turn out when c1cc(CNCCN2CCNCC2)cc(-c2ccc(-c3nc4ccccc4[nH]3)cc2)c1 was run?
Answer: 1080 nM

Question: How did the XC50 turn out when CCCCCCC(C)c1cc(OCCN(CC)CC)c2c(c1)OC(C)(C)C=C2c1ccncc1 (stereo not drawn) was run?
Answer: 1260 nM

Question: Which XC50 does the source give for CN1CCN(c2ccnc3ccc(NC(=O)Cc4ccc5ccccc5c4)cc23)CC1 here?
Answer: 759 nM

Question: For NS(=O)(=O)c1cncc(-c2ccc3nccc(-c4cn[nH]c4)c3n2)c1, which XC50 is on record?
Answer: 526 nM

Question: For CCCc1c(C(=O)NC2CCC(CN3CCC(c4c[nH]c5ccccc45)CC3)CC2)cnn1-c1ccccc1 (stereo not drawn), which XC50 is on record?
Answer: 1790 nM

Question: How did the XC50 turn out when O=C(NCc1ccccc1)NC(CCCN1CCC(Oc2cccc(Cl)c2)CC1)c1ccc(Cl)c(Cl)c1 (stereo not drawn) was run?
Answer: 862 nM

Question: How did the XC50 turn out when O=C(Nc1ccc(-c2ccc(-c3nc4cc(C(F)(F)F)ccc4[nH]3)cc2)cc1)Nc1ccc(F)c(F)c1F was run?
Answer: 217 nM

Question: Which XC50 does the source give for Cc1ccccc1C1CCN(C2CCC(NC(=O)c3cc4cc(Cl)ccc4o3)CC2)CC1 (stereo not drawn) here?
Answer: 1200 nM

Question: With O=C(CCNc1ccnc(NCC2CCCCC2)n1)Nc1ccccc1 as the compound, how does the XC50 read?
Answer: 1100 nM

Question: O=C1CSc2ccc(CNC3CCN(CCc4c(Cl)cnc5ccc(F)cc45)CC3)nc2N1 was tested. Which XC50 did it give?
Answer: 427 nM

Question: How did the XC50 turn out when O=C(/C=C/c1ccc(Cl)c(Cl)c1)NCCC1CCC(N2CCC(c3c[nH]c4ccc(O)cc34)CC2)CC1 (stereo not drawn) was run?
Answer: 762 nM

Question: For CC(=O)Nc1ccc(CN2CCC(NC(=O)c3ccc(-c4cccc(OC(C)C)c4)s3)CC2)cc1, which XC50 is on record?
Answer: 1460 nM

Question: For O=C(Nc1ccsc1)Nc1cccc(-c2cccc(-c3nc4ccccc4[nH]3)c2)c1, which XC50 is on record?
Answer: 117 nM

Question: With N=C(NCCCCC1CCCCC1)c1cccc(C(=N)NCCCCC2CCCCC2)n1 as the compound, how does the XC50 read?
Answer: 395 nM

Question: With CCCc1c(C(=O)OCC)c2cc(O)ccc2n1-c1ccc(OC)cc1 as the compound, how does the XC50 read?
Answer: 138 nM

Question: For CCCN(CCC)CCCOc1ccc(C(=O)c2c(-c3ccc(OCCCN(CCC)CCC)cc3)oc3ccc(Cl)cc23)cc1, which XC50 is on record?
Answer: 340 nM

Question: With O=C(N[C@H]1CCN(Cc2ccc(OCCCN3CCCCC3)cc2)C1)c1ccc(Oc2ccccc2)cc1 as the compound, how does the XC50 read?
Answer: 784 nM

Question: How did the XC50 turn out when O=C(Nc1cccc(-c2ccc(CN3CCCC3)cc2)c1)c1ccc(F)cc1 was run?
Answer: 1080 nM

Question: For O=C(NC1CCCCC1)C(c1cccs1)N(CCc1ccccc1)C(=O)c1ccco1 (stereo not drawn), which XC50 is on record?
Answer: 1040 nM

Question: COc1cc(Cc2cnc(N)nc2N)cc(OCc2cccc(C(=O)O)c2)c1OC was tested. Which XC50 did it give?
Answer: 835 nM

Question: How did the XC50 turn out when O=C(Nc1ccc(Cl)c(Cl)c1)Nc1ccc2nccc(N3CCNCC3)c2c1 was run?
Answer: 262 nM

Question: With COC(=O)c1cccc(CNCc2cccc(-c3cccc(-c4nc5cc(C(F)(F)F)ccc5[nH]4)c3)c2)c1 as the compound, how does the XC50 read?
Answer: 172 nM

Question: Which XC50 does the source give for CCCCCN1CCCC(NS(=O)(=O)c2ccc(C(=O)Nc3cccc(C(F)(F)F)c3)cc2)C1 (stereo not drawn) here?
Answer: 795 nM

Question: With Cc1[nH]cnc1CSCCNC(=N)NCCCCCCCCNC(=N)NCCSCc1nc[nH]c1C as the compound, how does the XC50 read?
Answer: 268 nM

Question: CCn1c(-c2nonc2N)nc2c(-c3cccc(NC(=O)Nc4cccc(C(F)(F)F)c4)c3)ncc(OCCCN)c21 was tested. Which XC50 did it give?
Answer: 969 nM

Question: With Cc1cc(C2CCN(CCCCNC(=O)c3ccc(NC(=O)c4ccc(Cl)cc4)cc3)CC2)c(C)cc1OCc1ccncc1 as the compound, how does the XC50 read?
Answer: 501 nM

Question: Cc1cc(C2CCN(CCCCNC(=O)c3ccc(NC(=O)c4ccc(Cl)cc4)cc3)CC2)c(C)cc1OCc1nccn1C was tested. Which XC50 did it give?
Answer: 835 nM

Question: With O=C(Nc1ccncc1)c1cc(C(=O)Nc2ccncc2)cc([N+](=O)[O-])c1 as the compound, how does the XC50 read?
Answer: 614 nM

Question: With O=C(Nc1cc(Cl)ccc1Cl)N[C@H]1CCN(CCCCCNC(=O)C2CC2c2ccc(Cl)c(Cl)c2)C1 (stereo partly drawn) as the compound, how does the XC50 read?
Answer: 770 nM

Question: Which XC50 does the source give for COc1ccc(C(=O)C2CCN(CCCCNC(=O)c3ccc(NC(=O)c4ccc(Cl)cc4)cc3)CC2)c(OC)c1 here?
Answer: 772 nM
